Data taken from US8063219B2, “Nitrogenous heterocyclic compounds, preparation thereof and use thereof as antibacterial medicaments” (Novexel, priority 2007, dated 2011).
Converted amounts (≈) assume the structure as drawn.

Experiments:
Experiment in all cases: In vitro activity, dilution method in liquid medium (MIC)
Assay type in all cases: cell-based
[1] = test system: Pseudomonas aeruginosa 1771 strains wild type; conditions: for Activity against Pseudomonas aeruginosa (in words): in vitro
Description: (§1) A series of tubes are prepared in which equal quantities of sterile nutrient medium are placed, and increasing quantities of the product being studied are placed in each tube then each tube is plated with a bacterial strain. After 24 hours incubation in an oven at 37° C., the growth inhibition is assessed by transillumination, which makes it possible to determine the minimum inhibition concentrations (MIC) expressed in μg/ml.
Tests are carried out in this way with the products of Examples 1 and 2 and compared with the products of Examples and 19 of application WO 02/100860.

[2] = test system: Pseudomonas aeruginosa strains resisting via β-lactamases; conditions: Resisting via β-lactamases [8 strains]
Description: as §1

[3] = test system: Pseudomonas aeruginosa strains resisting via efflux pumps
Description: as §1

[4] = test system: Pseudomonas aeruginosa strain resisting via porin mutations; conditions: for MIC (μg/ml) 24 h: Resisting via porin mutations [1 strain]
Description: as §1

[5] = test system: Pseudomonas aeruginosa PA01 wild type
Description: as §1

[6] = 1771 strains wild type, 24 h incubation at 37° C.
[7] = Resisting via efflux pumps, second set [5 strains]
[8] = Pseudomonas aeruginosa, 24 h, read-out: MIC (μg/ml) 24 h

| Molecule | MIC (μg/ml) 24 h [1, 6] [µg/mL] | MIC (μg/ml) 24 h [2] [µg/mL] | MIC (μg/ml) 24 h ([3]; Resisting via efflux pumps [11/5 strains], set not given) | MIC (μg/ml) 24 h [4] [µg/mL] | MIC (μg/ml) 24 h [5] [µg/mL] | Activity against Pseudomonas aeruginosa (in words) [1] | MIC (μg/ml) 24 h ([3]; Resisting via efflux pumps, first set [11 strains]) [µg⁻¹ mL⁻¹] | MIC (μg/ml) 24 h [3, 7] | MIC ([1]; Pseudomonas aeruginosa, 1771 strains wild type, 24 h incubation at 37° C., read-out: MIC (μg/ml) 24 h) [µg/mL] | MIC [2, 8] [µg/mL] | MIC [3, 8] [µg/mL] | MIC [4, 8] [µg/mL] | MIC ([5]; Pseudomonas aeruginosa, PA01WILDTYPE, 24 h, read-out: MIC (μg/ml) 24 h) [µg/mL] |
| --- | --- | --- | --- | --- | --- | --- | --- | --- | --- | --- | --- | --- | --- |
| CC(C)(O/N=C(\C(=O)N[C@@H]1C(=O)N2C(C(=O)[O-])=C(C[n+]3ccccc3)CS[C@H]12)c1csc(N)n1)C(=O)O [Ceftazidine, reference compound] | 1 (≈ 1.83 µM) | 2 to 32 | <=0.03-8 μg/ml | 2 (≈ 3.66 µM) | 2 (≈ 3.66 µM) |  |  |  |  |  |  |  |  |
| sodium and trifluoroacetate salts of trans[[8-(aminomethyl)-4,8-dihydro-1-methyl-6-oxo-5-(sulfooxy)-4,7-methano-7H-pyrazolo[3,4-e][1,3]diazepin-6(5H)-one [Ex 1] | 0.12 | 1 to 2 |  | 2 | 1 | very active | 0.5 to 4 | 0.25 to 0.5 µg/mL |  |  |  |  |  |
| The sodium and trifluoroacetate salt of trans[[8-(amino-methyl)-4,8-dihydro-6-oxo-5-(sulphooxy)-4,7-methano-7H-pyrazolo[3,4-e][1,3]diazepin-6(5H)-one [Ex 2] | 0.25 | 0.25 to 1 |  |  |  | very active |  | —/0.5-1 μg/ml |  |  |  |  |  |
| C[C@@H](O)[C@H]1C(=O)N2C(C(=O)O)=C(SCCN=CN)C[C@H]12 [Imipenem, reference compound] |  |  |  |  |  |  |  |  | 1 (≈ 3.34 µM) | 2 to 32 (≈ 6.68 to 107 µM) | 0.25 to 4 (≈ 0.835 to 13.4 µM) | 16 (≈ 53.4 µM) | 1 (≈ 3.34 µM) |
